Laboratory results reported in ChEMBL document CHEMBL4304837, “Discovery of Pyridazinone and Pyrazolo[1,5-a]pyridine Inhibitors of C-Terminal Src Kinase” (ACS Med Chem Lett, 2019).

Experiments:
[1] = molecular target: T1, Tyrosine-protein kinase ZAP-70 (Homo sapiens) (UniProt P43403); test: Effect on ZAP70 phosphorylation in human Jurkat cells pre-incubated for 30 mins followed by anti-CD3/CD28 stimulation measured after 10 mins relative to control; type: cell-based
T1 sequence (whole entry): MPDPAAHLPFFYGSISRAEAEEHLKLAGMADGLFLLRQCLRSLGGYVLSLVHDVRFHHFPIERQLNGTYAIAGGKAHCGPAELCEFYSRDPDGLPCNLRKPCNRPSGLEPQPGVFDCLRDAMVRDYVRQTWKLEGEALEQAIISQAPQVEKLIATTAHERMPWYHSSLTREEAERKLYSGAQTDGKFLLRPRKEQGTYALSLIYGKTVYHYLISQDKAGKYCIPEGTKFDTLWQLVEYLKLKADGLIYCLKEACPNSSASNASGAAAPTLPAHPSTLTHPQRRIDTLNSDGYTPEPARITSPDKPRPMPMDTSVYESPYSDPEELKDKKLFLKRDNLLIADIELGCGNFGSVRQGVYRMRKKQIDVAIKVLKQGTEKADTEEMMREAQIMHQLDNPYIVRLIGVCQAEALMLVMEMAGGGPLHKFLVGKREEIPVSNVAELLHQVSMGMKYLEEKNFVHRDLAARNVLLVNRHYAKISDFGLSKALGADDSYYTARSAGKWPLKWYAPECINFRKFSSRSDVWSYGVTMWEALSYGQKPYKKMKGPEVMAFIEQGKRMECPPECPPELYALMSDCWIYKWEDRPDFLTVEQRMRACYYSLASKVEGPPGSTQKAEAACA

[2] = Metabolic stability in mouse liver microsomes assessed as compound remaining at 0.5 uM measured after 10 mins in presence of NADPH by LC-MS/MS analysis; type: ADME, Microsome; conditions: read-out: Stability
[3] = Metabolic stability in human liver microsomes assessed as compound remaining at 0.5 uM measured after 10 mins in presence of NADPH by LC-MS/MS analysis; type: ADME, Microsome; conditions: read-out: Stability
[4] = Drug metabolism in mouse liver microsomes assessed as oxidation at indazole ring by soft spot analysis; type: ADME, Microsome
[5] = Effect on human CD4-positive T cell activation assessed as increase in IL-2 secretion preincubated for 15 mins followed by co-culture with CHO cells and measured after 48 hrs by AlphaLisa assay
[6] = Effect on human CD4-positive T cell activation assessed as increase in increase in CD4-positive T cells proliferation preincubated for 15 mins followed by co-culture with CHO cells and measured after 48 hrs by AlphaLisa assay; type: cell-based
[7] = Half life in human liver microsomes at 0.5 uM measured up to 45 mins by LC-MS/MS analysis; type: ADME, Microsome
[8] = Cmax in C57BL/6 mouse at 100 mg/kg, po; type: ADME, organism-based; set-up: dose 100 mg/kg, route oral; conditions: in vivo
[9] = AUC in C57BL/6 mouse at 100 mg/kg, po; type: ADME, organism-based; conditions: in vivo
[10] = Protein binding in mouse serum assessed as unbound fraction measured up to 5 hrs by LC-MS/MS analysis relative to control; type: ADME, cell-free
[11] = Half life in C57BL/6 mouse at 100 mg/kg, po; type: ADME, organism-based; conditions: in vivo
[12] = Protein binding in human serum assessed as unbound fraction measured up to 5 hrs by LC-MS/MS analysis relative to control; type: ADME, cell-free
[13] = Half life in mouse liver microsomes at 0.5 uM measured up to 45 mins by LC-MS/MS analysis; type: ADME, Microsome
Homo sapiens [14] = species: Homo sapiens; test: Immunostimulatory activity in human CD4-positive T cells assessed as increase in OKT-induced IL-2 secretion pre incubated for 15 mins followed by co-culture with CHO cells over-expressing OKT and measured after 48 hrs by AlphaLisa assay; type: functional, cell-based
[15] = Tmax in C57BL/6 mouse at 100 mg/kg, po; type: ADME, organism-based; conditions: in vivo
Homo sapiens [16] = species: Homo sapiens; test: Immunostimulatory activity in human CD4-positive T cells assessed as increase in OKT-induced increase in CD4-positive T cells proliferation pre incubated for 15 mins followed by co-culture with CHO cells over-expressing OKT and measured after 72 hrs by MTS assay; type: functional, cell-based
[17] = Drug concentration in C57BL/6 mouse at 100 mg/kg, po after 24 hrs; type: ADME, organism-based; conditions: in vivo, read-out: Ct
[18] = Plasma concentration in C57BL/6 mouse at 100 mg/kg, po; type: ADME, organism-based; conditions: in vivo
[19] = molecular target: Tyrosine-protein kinase Lck (Homo sapiens, UniProt P06239); test: Inhibition of His-tagged/GST-tagged LCK (unknown origin) incubated for 1 hr by TR-FRET assay
[20] = Drug metabolism in mouse liver microsomes assessed as oxidation at […] group by soft spot analysis; type: ADME, Microsome

Sequence of Tyrosine-protein kinase Lck (P06239 whole entry): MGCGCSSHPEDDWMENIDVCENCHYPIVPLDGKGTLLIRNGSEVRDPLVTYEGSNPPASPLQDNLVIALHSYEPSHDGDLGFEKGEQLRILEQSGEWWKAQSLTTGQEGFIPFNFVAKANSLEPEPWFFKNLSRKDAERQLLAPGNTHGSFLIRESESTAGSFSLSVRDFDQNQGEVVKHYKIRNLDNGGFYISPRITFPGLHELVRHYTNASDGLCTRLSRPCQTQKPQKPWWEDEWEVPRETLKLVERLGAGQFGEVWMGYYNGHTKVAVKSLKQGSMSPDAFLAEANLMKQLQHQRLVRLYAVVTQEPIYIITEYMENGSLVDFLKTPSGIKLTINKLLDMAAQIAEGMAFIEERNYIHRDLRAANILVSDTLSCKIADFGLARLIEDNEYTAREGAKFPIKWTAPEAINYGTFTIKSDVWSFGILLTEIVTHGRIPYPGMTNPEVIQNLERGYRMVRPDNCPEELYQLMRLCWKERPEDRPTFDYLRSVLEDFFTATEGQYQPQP

Structure (SMILES) | Emax [1] | remaining at 10 min, 0.5 µM [2] | remaining at 10 min, 0.5 µM [3] | also measured
CC(C)(C)NC(=O)N1CCC(n2nc(C(=O)Nc3ccc(-c4ccc(=O)[nH]n4)c(Cl)c3)c3ccccc32)CC1 | 180% | 15% | 65% | 
Cc1cc(NC(=O)c2nn(C3CCN(C(=O)NC(C)(C)C)CC3)c3ccccc23)ccc1NC(=O)c1cnn2ccccc12 | 190% | 10% | 72% | Drug metabolism [4]: Metabolite_Detected
COc1ccc2c(C(=O)Nc3ccc(NC(=O)c4nn(C5CCN(C(=O)CC(C)(C)C#N)CC5)c5ccc(F)cc45)cc3Cl)cnn2c1 | 360% | 100% | 91% | Activity [5]: Non-Toxic; Activity [6]: Non-Toxic; half-life at 0.5 µM [7]: > 2 h; Cmax [8]: 19.3 µM; AUC [9]: 222 µM·h; Fu [10]: 0.3%; half-life [11]: 5.3 h; Fu [12]: < 0.1%; half-life at 0.5 µM [13]: > 2 h; Activity (Homo sapiens [14]): Dose-dependent effect; Tmax [15]: 7 h; Activity (Homo sapiens [16]): Dose-dependent effect; concentration at 24 h [17]: 1.3 µM
CCc1cc(NC(=O)c2nn(C3CCN(C(=O)NC(C)(C)C)CC3)c3ccccc23)ccc1-c1n[nH]c(=O)c(C)c1C | 270% | 59% | 61% | half-life at 0.5 µM [7]: 0.233 h; Fu [10]: 1%; Fu [12]: 0.5%; half-life at 0.5 µM [13]: 0.2 h
COc1ccc2c(C(=O)Nc3ccc(NC(=O)c4nn(C5CCN(C(=O)NC(C)(C)C)CC5)c5ccccc45)cc3C)cnn2c1 | 220% | 2% | 80% | 
COc1ccc2c(C(=O)Nc3ccc(NC(=O)c4nn(C5CCN(C(=O)NC(C)(C)C)CC5)c5ccc(F)cc45)cc3Cl)cnn2c1 | 210% | 99% | 85% | half-life at 0.5 µM [7]: > 2 h; Fu [10]: < 0.2%; Fu [12]: 0.4%; half-life at 0.5 µM [13]: 1.47 h
CC(C)(C)NC(=O)N1CCC(n2nc(C(=O)Nc3ccc(NC(=O)c4cnn5ccccc45)c(Cl)c3)c3ccccc32)CC1 | 250% | 24% | 84% | 
Cc1cc(=O)[nH]nc1-c1ccc(NC(=O)c2nn(C3CCN(C(=O)NC(C)(C)C)CC3)c3ccccc23)cc1Cl | 350% | 9% | 68% | 
CCc1cc(NC(=O)c2nn(C3CCN(C(=O)NC(C)(C)C)CC3)c3ccccc23)ccc1-c1cc(C)c(=O)[nH]n1 | 280% | 1% | 72% | 
CCc1cc(NC(=O)c2nn(C3CCN(C(=O)NC(C)(C)C)CC3)c3ccccc23)ccc1-c1n[nH]c(=O)cc1C | 350% | 78% | 53% | half-life at 0.5 µM [7]: 0.167 h; Cmax [8]: 17.3 µM; AUC [9]: 51.5 µM·h; concentration [18]: 8.7 µM; Fu [10]: 0.9%; half-life [11]: 1.9 h; Fu [12]: 0.4%; half-life at 0.5 µM [13]: 0.517 h; Tmax [15]: 0.3 h; concentration at 24 h [17]: 0.001 µM
CC(C)(C)NC(=O)N1CCC(n2nc(C(=O)Nc3ccc(NC(=O)c4cnn5ccccc45)cc3)c3ccccc32)CC1 | 240% | 21% | 71% | 
CC(C)(C)NC(=O)N1CC(Cn2nc(C(=O)Nc3ccc(-c4ccc(=O)[nH]n4)c(Cl)c3)c3ccccc32)C1 | 73% | 33% | 2% | IC50 [19]: > 50 µM
COc1ccc2c(C(=O)Nc3ccc(NC(=O)c4nn(C)c5ccccc45)cc3C)cnn2c1 |  | 59% |  | 
Cc1cc(NC(=O)c2nn(C3CCN(C(=O)CC(C)(C)C#N)CC3)c3ccccc23)ccc1NC(=O)c1cnn2ccccc12 | 370% | 9% | 85% | Drug metabolism [20]: Metabolite_Detected
